The test concerns Hepatitis C replicon. Put plainly: HCV replicon assay (NPT level by captured ELISA in replicon-containing cells). It counts as cell-based. As to conditions: Hepatitis C virus, 72 h; Huh-7 HCV replicon-containing cells, three days incubation. The method, then: The compounds claimed herein were tested for the ability to inhibit viral replication of the Hepatitis C replicon in cultured cells in which the HCV replicon construct has been incorporated. The HCV replicon system was described by Bartenschlager, et. al (Science, 285, pp. 110-113 (1999)). The replicon system is predictive of in vivo anti-HCV activity; compounds that are active in humans uniformly evidence activity in the replicon assay.
HCV replicon-containing cells are treated with different concentrations of interferon alpha, a known inhibitor of HCV replication, as a positive control and with different concentrations of the test compound. The replicon assay system includes Neomycin Phosphotransferase (NPT) as a component of the replicon itself in order to detect the transcription of replicon gene products in the host cell. Cells in which the HCV is actively replicating have high levels of NPT; the level of NPT is proportional to HCV replication. […] The NPT level of each sample is measured using a captured ELISA.
A protocol for testing compounds for the ability to inhibit viral replication of the Hepatitis C replicon cultured cells in which the replicon construct has been incorporated, follows.
9A. HCV Replicon and Replicon Expression
The HCV genome consists of a single ORF that encodes a 3000 amino acid polyprotein. The ORF is flanked on the 5′ side by an untranslated region that serves as an internal ribosome entry site (IRES) and at the 3′ side by a highly conserved sequence necessary for viral replication (3′-NTR). The structural proteins, necessary for viral infection, are located near the 5′ end of the ORF. The non-structural proteins, designated NS2 to NS5B comprise the remainder of the ORF.
The HCV replicon contains, 5′-3′, the HCV-IRES, the neomycin phosphotransferase (neo) gene, the IRES of encephalomyocarditis virus, which directs translation of HCV sequences NS3 to NS5B, and the 3′-NTR. The sequence of the HCV replicon has been deposited in GenBank (Accession no. AJ242652).
The replicon is transfected into Huh-7 cells using standard methods such as electroporation.
The equipment and materials include, but are not limited to, Huh-7 HCV replicon-containing cells, maintenance media (DMEM (Dulbecco's modified Eagle media) supplemented with 10% FBS, L-glutamine, non-essential amino acids, penicillin (100 units/ml), streptomycin (100 micrograms/ml), and 500 micrograms/ml of Geneticin G418), screening media (DMEM supplemented with 10% FBS, L-glutamine, and non-essential amino acid, penicillin (100 units/ml) and streptomycin (100 micrograms/ml)), 96 well tissue culture plates (flat bottom), 96 well plates (U bottom for drug dilution), Interferon alpha for positive control, fixation reagent (such as methanol: acetone), primary antibody (rabbit anti-NPTII), secondary antibody: Eu—N1l, and enhancement solution.
HCV replicon-containing cells support high levels of viral RNA replicon replication when their density is suitable. Over confluency will cause a decrease of viral RNA replication. Therefore, cells must be kept growing in log phase in the presence of 500 micrograms/ml of G418. Generally, cells should be passed twice a week at 1: 4-6 dilution. Cell maintenance is conducted as follows:
HCV replicon-containing cells are examined under a microscope to ensure that cells growing well. Cells are rinsed once with PBS and 2 ml trypsin is added. The cell/trypsin mixture is incubated at 37° C. in a CO2 incubator for 3-5 minutes. After incubation 10 ml of complete media is added to stop the trypsinization reaction. Cells are blown gently, put into a 15 ml tube, and spun at 1200 rpm for 4 minutes. The trypsin/medium solution is removed. Medium (5 ml) is added and the cells are mixed carefully. The cells are counted.
The cells are then seeded onto 96-well plates at a density of 6000-7500 cells/100 ul/well (6-7.5×10^5 cells/10 ml/plate). The plates are then incubated at 37° C. in a 5% CO2 incubator. […]
For orientation: In antiviral work, replicon cells carry a viral genome segment that copies itself.
`CCCCCOc1ccc(NC(N)=S)cc1` [Compound 6, 1-(4-Pentyloxy-phenyl)-thiourea] came in with an EC50 of less than 1000 nM. For the compound `NC(=S)Nc1cccc(Cc2ccccc2)c1` [Compound 5, 1-(3-Benzyl-phenyl)-thiourea], the 50% effective concentration (EC50) is less than 1000 nM. The result for `NC(=S)NCc1cccc(-c2ccccc2)c1` [Compound 56, 1-(3-phenylbenzyl)thiourea] reads less than 1000 nM; that for `C[C@H](Oc1cccc(NC(N)=S)c1)c1ccccc1` [Compound 16, 1-(3-((S)-1-phenylethoxy)phenyl)thiourea], less than 1000 nM; that for `NC(=S)Nc1cccc(OCc2ccc(-c3ccccc3)cc2)c1` [Compound 15, 1-(3-(4-phenylbenzyloxy)phenyl)thiourea], less than 1000 nM. The result for `NC(=S)Nc1cccc(OC2Cc3ccccc3C2)c1` [Compound 13, 1-(3-(indan-2-yloxy)phenyl)thiourea] reads less than 1000 nM.

The compound `COc1cccc(Cc2cccc(NC(N)=S)c2)c1` [Compound 35, 1-(3-(3-methoxybenzyl)phenyl) thiourea] returned a concentration giving a half-maximal response (EC50) of less than 1000 nM.

`CCCCC#Cc1ccc(NC(N)=S)cc1` [Compound 33, 1-(4-(hex-1-ynyl)phenyl)thiourea] showed a concentration giving a half-maximal response (EC50) of less than 1000 nM. Consider `CCC[C@H]1CC[C@H](c2ccc(NC(N)=S)cc2)CC1` [Compound 31, 1-(4-((1s,4r)-4-propylcyclohexyl)phenyl)thiourea], for which the concentration giving a half-maximal response (EC50) was less than 1000 nM.

`NC(=S)Nc1ccc(N2CCC3CCCCC3C2)cc1` (stereo not drawn) [Compound 26, 1-(4-(octahydroisoquinolin-2(1H)-yl)phenyl)thiourea] gave an EC50 of less than 1000 nM.

The compound `NC(=S)Nc1ccc(N2CCCCC2)c(C(F)(F)F)c1` [Compound 32, 1-(3-(trifluoromethyl)-4-(piperidin-1-yl)phenyl)thiourea] registered a concentration giving a half-maximal response (EC50) of less than 1000 nM. With `NC(=S)Nc1ccc(OCc2ccccc2)cc1` [Compound 28, 1-(4-(benzyloxy)phenyl)thiourea], the EC50 is less than 1000 nM. `Cc1cc(NC(N)=S)ccc1N1CCCCC1` [Compound 51, 1-(3-(methyl)-4-(piperidin-1-yl)phenyl)thiourea] gave an EC50 of less than 1000 nM. `NC(=S)Nc1ccc(N2CCC(c3ccccc3)CC2)c(F)c1` [Compound 54, 1-(3-fluoro-4-(4-phenylpiperidin-1-yl)phenyl)thiourea] came in with a 50% effective concentration (EC50) of less than 1000 nM. `CCCCCCCOc1ccc(NC(N)=S)cc1C(F)(F)F` [Compound 39, 1-(4-(heptyloxy)-3-(trifluoromethyl)phenyl)thiourea]: the EC50 is less than 1000 nM. Next, `NC(=S)Nc1cccc(OCCc2ccccc2)c1` [Compound 21, 1-(3-(phenethyloxy)phenyl)thiourea]: less than 1000 nM; `NC(=S)Nc1ccc(N2CCc3ccccc3C2)c(F)c1` [Compound 24, 1-(3-fluoro-4-(3,4-dihydro-isoquinolin-2(1H)-yl)phenyl)thiourea]: less than 1000 nM; `NC(=S)Nc1ccc2c(c1)OC(c1ccccc1)O2` (stereo not drawn) [Compound 19, 1-(2-phenylbenzo[d]-[1,3]dioxol-6-yl)thiourea]: less than 1000 nM. In the case of `NC(=S)NCc1ccc(-c2ccccc2)cc1` [Compound 57, 1-(4-phenylbenzyl)thiourea], the half-maximal effective concentration (EC50) is less than 1000 nM. The result for `CCCCCC[C@H]1CC[C@H](c2ccc(NC(N)=S)cc2)CC1` [Compound 29, 1-(4-((1s,4r)-4-hexylcyclohexyl)phenyl)thiourea] reads less than 1000 nM. The compound `NC(=S)NCc1ccc(Oc2ccccc2)cc1` [Compound 55, 1-(4-phenoxybenzyl)thiourea] gave a concentration giving a half-maximal response (EC50) of less than 1000 nM. Take `NC(=S)Nc1cccc(Oc2ccccc2)c1` [Compound 3, 1-(3-Phenoxy-phenyl)-thiourea]: the 50% effective concentration (EC50) is less than 1000 nM. Next, `CCCCCc1ccc(NC(N)=S)cc1` [Compound 7, 1-(4-Pentyl-phenyl)-thiourea]: less than 1000 nM; `CCCCCOc1ccc(NC(N)=S)cc1F` [Compound 12, 1-(3-Fluoro-(4-Pentyloxy)-phenyl)-thiourea]: less than 1000 nM. Compound `NC(=S)Nc1ccc(N2CCc3ccccc3C2)cc1` [Compound 25, 1-(4-(3,4-dihydro-isoquinolin-2(1H)-yl)phenyl)thiourea] displayed an EC50 of less than 1000 nM. In the case of `CCCCc1ccc(CNC(N)=S)cc1` [Compound 59, 1-(4-butylbenzyl)thiourea], the EC50 was less than 1000 nM. `NC(=S)Nc1cccc(-c2ccccc2)c1` [Compound 22, 1-(3-(phenyl)phenyl)thiourea] returned an EC50 of less than 1000 nM. The compound `NC(=S)Nc1cccc(OCc2ccc(F)c(F)c2)c1` [Compound 14, 1-(3-(3,4-difluorobenzyloxy)phenyl)thiourea] had a concentration for a half-maximal effect (EC50) of less than 1000 nM. In turn, `NC(=S)Nc1ccc(-c2ccccc2)cc1` [Compound 23, 1-(4-(phenyl)phenyl)thiourea] yielded an EC50 of less than 1000 nM. For `CCCCCCC12CCC(c3ccc(NC(N)=S)cc3)(CC1)CC2` [Compound 30, 1-(4-(4-hexylbicyclo[2.2.2]octan-1-yl)phenyl)thiourea], the EC50 was less than 1000 nM.

`C[C@@H](Oc1cccc(NC(N)=S)c1)c1ccccc1` [Compound 20, 1-(3-((R)-1-phenylethoxy)phenyl)thiourea] had an EC50 of less than 1000 nM. Next, `NC(=S)Nc1cccc(OCc2cccc(C(F)(F)F)c2)c1` [Compound 53, 1-(3-(3-(trifluoromethyl)benzyloxy)phenyl)thiourea]: less than 1000 nM; `NC(=S)Nc1cccc(NCC2CCCCC2)c1` [Compound 52, 1-(3-(cyclohexylmethylamino)phenyl)thiourea]: less than 1000 nM.

The EC50 is the midpoint of the concentration-response curve.

The values are drawn from patent publication US7718671B2, “Substituted arylthiourea derivatives useful as inhibitors of viral replication” (Achillion Pharmaceuticals, Inc., priority 2003, dated 2010).
